Patent publication US20240376378A1, “COLORANT FOR FLUORESCENT LABELING AND FLUORESCENT LABELING AGENT” (artience Co., Ltd., priority 2021, published 2024)

Assays:
Hela cells = experiment: Evaluation of cell staining: fluorescence intensity by plate reader; assay type: cell-based; details: 1 μM colorant, 1 hour, washed, plate reader 780 to 800 nm
Procedure: Each colorant solution was diluted 20-fold with an Eagle's minimum essential medium (commercially available from FUJIFILM Wako Pure Chemical Corporation) to prepare a fluorescent labeling agent containing 1 μM of the colorant for fluorescent labeling.
Hela cells were seeded in a 96-well plate (1×10^4 cells/well), and cultured in an incubator (37° C., 5% CO2-containing Air, humidified environment) for 48 hours using an Eagle's minimum essential medium (commercially available from FUJIFILM Wako Pure Chemical Corporation) containing 10% Fetal Bovine Serum (FBS) and 1% penicillin-streptomycin. Then, the medium was removed, and the fluorescent labeling agent prepared above was added to each well. The sample was left in an incubator for 1 hour, and then washed with the Eagle's minimum essential medium (commercially available from FUJIFILM Wako Pure Chemical Corporation). Using a plate reader (SPARK, commercially available from Tecan Group Ltd.), the fluorescence intensity was measured in a range of 780 to 800 nm, and evaluated based on the following criteria. […] The evaluation results are shown in “fluorescence intensity during cell staining” in Table 8.
• 4: fluorescence intensity measurement value 2,000 or more • 3: fluorescence intensity measurement value less than 2,000 to 1,000 or more • 2: fluorescence intensity measurement value less than 1,000 to 500 or more • 1: fluorescence intensity measurement value less than 500

[1] = Measurement of average particle size (Z average, dynamic light scattering) of colorant dispersed component in PBS dispersion; assay type: physicochemical; details: 20 μM DMSO colorant solution diluted 10-fold with PBS to 2 μM, measured within 5 minutes
Procedure: The average particle size of the colorant dispersed component contained in the colorant dispersion I can be measured as follows.
A colorant solution is obtained by dissolving a colorant for fluorescent labeling in an organic solvent that can dissolve the colorant for fluorescent labeling so that the concentration is 20 μM. The colorant solution is diluted 10-fold with PBS and mixed to prepare a colorant dispersion I with a concentration of 2 μM.
Here, the method of mixing the colorant solution and the PBS is not particularly limited, and for example, a method of adding a colorant solution to PBS is preferable. Mixing may be performed separately in a plurality of steps. The method of mixing a colorant solution and PBS is not particularly limited, and a method that can quickly achieve a uniform mixing state is desirable. As an example of the mixing method, mixing can be performed by well-known methods such as stirring with a stirrer, pipetting with a pipette, and using a Vortex mixer. The colorant dispersion I can be obtained, for example, by diluting a colorant solution 10-fold with PBS at 25° C. and mixing by pipetting 10 times or more.
The particle size distribution of the colorant dispersion I obtained as above is measured using a particle size distribution measuring device (Zetasizer Nano ZSP, commercially available from Spectris). It is preferable to measure the average particle size under conditions at 25° C. It is desirable to measure the average particle size within 5 minutes after the colorant dispersion I is prepared.
As the value of the average particle size, values such as a Z average particle size, a number average particle size, a volume average particle size, and an area average particle size can be used. In the present invention, the Z average particle size measured by a dynamic light scattering method is defined as the average particle size of the colorant dispersed component contained in the colorant dispersion I.
After each colorant solution was diluted 10-fold with phosphate buffered saline (PBS) to obtain a colorant dispersion I with a colorant concentration of 2 μM, measurement was performed immediately (within 5 minutes) using a particle size distribution measuring device (Zetasizer Nano ZSP, commercially available from Spectris). The Z average particle size of the colorant fine particles (the colorant dispersed component in the colorant dispersion I) of each colorant for fluorescent labeling was determined based on the following criteria. The determination results are shown in “average particle size” in Table 8.
• 4: Z average particle size 5 nm or more to less than 100 nm • 3: Z average particle size 100 nm or more to less than 300 nm • 2: Z average particle size 300 nm or more to 500 nm or less • 1: Z average particle size more than 500 nm

[2] = Measurement of absorbance retention (A1 in PBS / A0 in dimethyl sulfoxide); assay type: physicochemical; details: A1/A0 at maximum-absorption wavelength; 2 μM in PBS vs 2 μM in dimethyl sulfoxide, within 5 minutes
Procedure: The absorbance retention calculated by Formula (I) is calculated as follows.
A colorant solution I is prepared by dissolving the colorant for fluorescent labeling in a soluble organic solvent so that the concentration is 2 μM. The absorption spectrum of the colorant solution I is measured using a spectrophotometer (U-4100, commercially available from Hitachi High-Tech Corporation), and the absorbance A0 at a maximum-absorption wavelength is determined.
In addition, a colorant dispersion II is prepared by dissolving the colorant for fluorescent labeling in a soluble organic solvent so that the concentration is 20 μM, and this is additionally diluted 10-fold with PBS so that the concentration is 2 μM. The absorption spectrum of the colorant dispersion II is measured using a spectrophotometer (U-4100, commercially available from Hitachi High-Tech Corporation), and the absorbance A1 at a maximum-absorption wavelength is determined. It is preferable to measure the absorbance under conditions at 25° C. In addition, it is desirable to measure the absorbance within 5 minutes after the […] is prepared. The colorant dispersion II can be obtained, for example, by diluting a colorant solution 10-fold with PBS at 25° C. and mixing by pipetting 10 times or more.
After each colorant solution was diluted 10-fold with dimethyl sulfoxide to obtain a colorant solution I with a colorant concentration of 2 μM, the absorption spectrum was measured using a spectrophotometer (U-4100, commercially available from Hitachi High-Tech Corporation), and the absorbance A0 at a maximum-absorption wavelength was obtained. In addition, after each colorant solution was diluted 10-fold with phosphate buffered saline (PBS) to obtain a colorant dispersion II with a colorant concentration of 2 μM, the absorption spectrum was measured immediately (within 5 minutes) using the spectrophotometer, and the absorbance A1 at a maximum-absorption wavelength was obtained. Using the obtained values of A0 and A1, the absorbance retention was calculated from Formula (I), and determined based on the following criteria.
• 4: absorbance retention 0.8 or more • 3: absorbance retention less than 0.8 to 0.5 or more • 2: absorbance retention less than 0.5 to 0.3 or more • 1: absorbance retention less than 0.3

Compound	Fluorescence intensity during cell staining (Hela cells)	Average particle size [1]	Absorbance retention [2]
CCCCCCCCCCCCCCCCCCN1/C(=C/C=C/C=C/C=C/C2=[N+](CCCCCCCCCCCCCCCCCC)c3ccccc3C2(C)C)C(C)(C)c2ccccc21.[I-] [Comparative compound 6]	1 (fluorescence intensity measurement value less than 500)	2 (Z average particle size 300 nm or more to 500 nm or less)	2 (absorbance retention less than 0.5 to 0.3 or more)
O=P(O)(O)CCOc1ccc(-c2cc3c(o2)=CC2=C(C(F)(F)F)c4cc5oc(-c6ccc(OCCP(=O)(O)O)cc6)cc5n4[B-](F)(F)[N+]=32)cc1 [Colorant for fluorescent labeling 24]	4 (fluorescence intensity measurement value 2,000 or more)	3 (Z average particle size 100 nm or more to less than 300 nm)	4 (absorbance retention 0.8 or more)
Aluminum 1, 8, 15, 22-tetrakis(phenylthio)-29H, 31H-phthalocyanine chloride [Comparative compound 3]	1 (fluorescence intensity measurement value less than 500)	1 (Z average particle size more than 500 nm)	1 (absorbance retention less than 0.3)
O=C(O)CCOc1ccc(-c2cc3c(o2)=CC2=C(C(F)(F)F)c4cc5oc(-c6ccc(OCCC(=O)O)cc6)cc5n4[B-](F)(F)[N+]=32)cc1 [Colorant for fluorescent labeling 23]	4 (fluorescence intensity measurement value 2,000 or more)	3 (Z average particle size 100 nm or more to less than 300 nm)	4 (absorbance retention 0.8 or more)
